According to publication PMC2010749, “Cytotoxic and clastogenic effects of soluble and insoluble compounds containing hexavalent and trivalent chromium” (British Journal of Cancer, 1981):

How the values were obtained:
[1] = test system: BHK 21 Syrian hamster fibroblast line; assay: DNA, RNA and protein syntheses in BHK cells, Cr compounds added directly to medium; assay type: cell-based; conditions: 48 h in MEM
Procedure: (§1) Cell growth and labelling.-The reduction in cell growth, based on the nucleic acid content (DNA + RNA) of treated cultures, and the inhibition of DNA, RNA and protein syn- thesis, based on the incorporation of labelled precursors, were determined, to evaluate the cytotoxic effects of Cr compounds in BHK cell cultures. […] Three to four thousand cells were then examined for each dose level and each time interval, and the mitotic index (the ratio of all mitoses to the total number of cells) and the frequencies of each mitotic phase (the ratios of cells in each phase to total mitoses) were determined. […] Chromium compounds and cell treatments.- The tested compounds of Cr(VI) and Cr(III) and their physico-chemical properties are listed in Table I. In many experiments in which most of them were highly insoluble or only partially soluble (see Tables I, IV, V), Cr compounds were directly suspended in the growth medium used for treatments. […] The cytotoxic and clastogenic effects were usually deter- mined just at the end of Cr treatments, but sometimes the treated cells were washed with HBSS and incubated with normal growth medium, so that the effects of Cr were deter- mined at different times after the end of treatment (see Fig. 3 and Table VII).

[2] = test system: BHK 21 Syrian hamster fibroblast line; assay: Cell growth of BHK cultures (DNA + RNA content), Cr compounds added directly to medium; assay type: cell-based; conditions: 48 h in MEM
Procedure: (§2) Cell growth and labelling.-The reduction in cell growth, based on the nucleic acid content (DNA + RNA) of treated cultures, and the inhibition of DNA, RNA and protein syn- thesis, based on the incorporation of labelled precursors, were determined, to evaluate the cytotoxic effects of Cr compounds in BHK cell cultures. […] Three to four thousand cells were then examined for each dose level and each time interval, and the mitotic index (the ratio of all mitoses to the total number of cells) and the frequencies of each mitotic phase (the ratios of cells in each phase to total mitoses) were determined. […] Chromium compounds and cell treatments.- The tested compounds of Cr(VI) and Cr(III) and their physico-chemical properties are listed in Table I. In many experiments in which most of them were highly insoluble or only partially soluble (see Tables I, IV, V), Cr compounds were directly suspended in the growth medium used for treatments. In the experiments on the induction of chromosome aberrations and SCE in CHO cells, almost complete solubilization was obtained in N HCI for Cr(III) compounds and 0-5N NaOH for Cr(VI) compounds, after which they were diluted with MEM to the final concentrations specified in Table IX. […] The cytotoxic and clastogenic effects were usually deter- mined just at the end of Cr treatments, but sometimes the treated cells were washed with HBSS and incubated with normal growth medium, so that the effects of Cr were deter- mined at different times after the end of treatment (see Fig. 3 and Table VII).

[3] = test system: HEp-2 human epithelial-like line; conditions: 2 h exposure to medium preincubated 2 days with 0.5 mg/ml in presence of BHK cells
Procedure: as §1

[4] = test system: CHO Chinese hamster fibroblast line; assay: Cell growth of CHO cultures (DNA + RNA content); assay type: cell-based; conditions: 32 h in MEM
Procedure: as §1

[5] = test system: BHK 21 Syrian hamster fibroblast line; assay: DNA, RNA and protein syntheses in BHK monolayers exposed to filtered medium preincubated with Cr compounds; assay type: cell-based;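 further: DNA, RNA and protein synthesis in BHK cultures assessed by incorporation of labelled precursors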
Procedure: as §1

Salmonella = conditions: ref Petrilli & De Flora (1978a,b) and De Flora (1981), cited from earlier work; for Mutagenicity in the plate test: dissolved in 0.5N NaOH
[6] = Solubility of chromium compounds (Table I)
Procedure: as §2

rats = conditions: s.c. in rats; 0% in the controls; ref Maltoni (1976); cited from earlier work
[7] = test system: bacteria and mammalian cells in culture; conditions: 1979, De Flora, 1981, cited from earlier work
[8] = preincubated 48 h with 0.5 mg/ml, cells exposed 24 h
[9] = 0.5 mg/ml, preincubation 2 h, monolayers exposed 24 h
[10] = 0.5 mg/ml, preincubation 1 d, monolayers exposed 24 h
[11] = 0.5 mg/ml, preincubation 2 d, monolayers exposed 24 h
[12] = 0.5 mg/ml, preincubation 3 d, monolayers exposed 24 h
[13] = 0.5 mg/ml, preincubation 6 d, monolayers exposed 24 h
[14] = preincubated 48 h with 0.15/0.05 mg/ml (one value for both), cells exposed 24 h

With `O=S(=O)([O-])[O-].O=S(=O)([O-])[O-].O=S(=O)([O-])[O-].[Cr+3].[Cr+3]` [Chromium sulphate] the DNA synthesis ([1]; 0.5 mg/ml) was 45 % of controls, the Protein synthesis ([1]; 0.5 mg/ml) was 69 % of controls and the RNA synthesis ([1]; 0.5 mg/ml) was 55 % of controls. The Cell growth ([2]; 0.5 mg/ml) was 68 % of controls, the “Mitotic block (% increase of abnormal metaphases 2-4 h after treatment)” value [3] was “+ (+ (<50%))” and the “Mitotic inhibition, early (% reduction of normal prophases at the end of treatment)” value [3] was “+ (+ (< 30%))”. For the same compound, the “Mitotic inhibition, late (% reduction of normal prophases 24 h after treatment)” value [3] was “+ (+ (< 30%))”, the Cell growth ([4]; 5 µg/ml) was 100 % control and the Cell growth ([4]; 25 µg/ml) was 100 % control. The Cell growth ([4]; 150 µg/ml) was 93 % control, the “DNA synthesis, preinc. in MEM” value [5, 8] was 82 % of controls and the “DNA synthesis, preinc. in MEM+BHK” value [5, 8] was 100 % of controls. The “Protein synthesis, preinc. in MEM” value [5, 8] was 100 % of controls, the “Protein synthesis, preinc. in MEM+BHK” value [5, 8] was 100 % of controls and the “RNA synthesis, preinc. in MEM” value [5, 8] was 87 % of controls. For the same compound, the “RNA synthesis, preinc. in MEM+BHK” value [5, 8] was 100 % of controls.

In the case of `[O]=[Cr](=[O])([O-])[O-].[O]=[Pb].[Pb+2]` [Chromium orange, Basic lead chromate], the DNA synthesis ([1]; 0.05 mg/ml) is reported as 43 % of controls, the Protein synthesis ([1]; 0.05 mg/ml) is reported as 92 % of controls and the RNA synthesis ([1]; 0.05 mg/ml) is reported as 84 % of controls. For the same compound, the DNA synthesis ([1]; 0.15 mg/ml) was 11 % of controls, the Protein synthesis ([1]; 0.15 mg/ml) was 75 % of controls and the RNA synthesis ([1]; 0.15 mg/ml) was 53 % of controls. The DNA synthesis ([1]; 0.5 mg/ml) was 0 % of controls, the Protein synthesis ([1]; 0.5 mg/ml) was 0 % of controls and the RNA synthesis ([1]; 0.5 mg/ml) was 0 % of controls. For the same compound, the Cell growth ([2]; 0.05 mg/ml) was 72 % of controls, the Cell growth ([2]; 0.15 mg/ml) was 41 % of controls and the Cell growth ([2]; 0.5 mg/ml) was 0 % of controls. For the same compound, the “Mutagenicity in the plate test” value (Salmonella) was “positive”, the “Mutagenicity in the spot test” value (Salmonella) was “mutagens” and the “Mitotic block (% increase of abnormal metaphases 2-4 h after treatment)” value [3] was “++ (+ + (50-100%))”. The “Mitotic inhibition, early (% reduction of normal prophases at the end of treatment)” value [3] was “++ (+ + (30-70%))”, the “Mitotic inhibition, late (% reduction of normal prophases 24 h after treatment)” value [3] was “+++ (+ + + (> 70%))” and the Cell growth ([4]; 5 µg/ml) was 100 % control. The Cell growth ([4]; 25 µg/ml) was 93 % control, the Cell growth ([4]; 150 µg/ml) was 56 % control and the “DNA synthesis, preinc. in MEM” value [5, 9] was 100 % of controls. The “DNA synthesis, preinc. in MEM+BHK” value [5, 9] was 100 % of controls, the “Protein synthesis, preinc. in MEM” value [5, 9] was 100 % of controls and the “Protein synthesis, preinc. in MEM+BHK” value [5, 9] was 100 % of controls. The “RNA synthesis, preinc. in MEM” value [5, 9] was 100 % of controls, the “RNA synthesis, preinc. in MEM+BHK” value [5, 9] was 100 % of controls and the “DNA synthesis, preinc. in MEM” value [5, 10] was 84 % of controls. The “DNA synthesis, preinc. in MEM+BHK” value [5, 10] was 95 % of controls, the “Protein synthesis, preinc. in MEM” value [5, 10] was 100 % of controls and the “Protein synthesis, preinc. in MEM+BHK” value [5, 10] was 100 % of controls. For the same compound, the “RNA synthesis, preinc. in MEM” value [5, 10] was 100 % of controls, the “RNA synthesis, preinc. in MEM+BHK” value [5, 10] was 100 % of controls and the “DNA synthesis, preinc. in MEM” value [5, 11] was 54 % of controls. The “DNA synthesis, preinc. in MEM+BHK” value [5, 11] was 86 % of controls, the “Protein synthesis, preinc. in MEM” value [5, 11] was 92 % of controls and the “Protein synthesis, preinc. in MEM+BHK” value [5, 11] was 100 % of controls. For the same compound, the “RNA synthesis, preinc. in MEM” value [5, 11] was 85 % of controls, the “RNA synthesis, preinc. in MEM+BHK” value [5, 11] was 96 % of controls and the “DNA synthesis, preinc. in MEM” value [5, 12] was 47 % of controls. For the same compound, the “DNA synthesis, preinc. in MEM+BHK” value [5, 12] was 78 % of controls, the “Protein synthesis, preinc. in MEM” value [5, 12] was 100 % of controls and the “Protein synthesis, preinc. in MEM+BHK” value [5, 12] was 100 % of controls. The “RNA synthesis, preinc. in MEM” value [5, 12] was 81 % of controls, the “RNA synthesis, preinc. in MEM+BHK” value [5, 12] was 100 % of controls and the “DNA synthesis, preinc. in MEM” value [5, 13] was 21 % of controls. The “DNA synthesis, preinc. in MEM+BHK” value [5, 13] was 52 % of controls, the “Protein synthesis, preinc. in MEM” value [5, 13] was 78 % of controls and the “Protein synthesis, preinc. in MEM+BHK” value [5, 13] was 92 % of controls. For the same compound, the “RNA synthesis, preinc. in MEM” value [5, 13] was 66 % of controls, the “RNA synthesis, preinc. in MEM+BHK” value [5, 13] was 72 % of controls and the “DNA synthesis, preinc. in MEM” value [5, 8] was 62 % of controls. For the same compound, the “DNA synthesis, preinc. in MEM+BHK” value [5, 8] was 100 % of controls, the “Protein synthesis, preinc. in MEM” value [5, 8] was 100 % of controls and the “Protein synthesis, preinc. in MEM+BHK” value [5, 8] was 100 % of controls. The “RNA synthesis, preinc. in MEM” value [5, 8] was 93 % of controls, the “RNA synthesis, preinc. in MEM+BHK” value [5, 8] was 100 % of controls and the “DNA synthesis, preinc. in MEM” value [5, 14] was 100 % of controls. For the same compound, the “DNA synthesis, preinc. in MEM+BHK” value [5, 14] was 100 % of controls, the “Protein synthesis, preinc. in MEM” value [5, 14] was 100 % of controls and the “Protein synthesis, preinc. in MEM+BHK” value [5, 14] was 100 % of controls. For the same compound, the “RNA synthesis, preinc. in MEM” value [5, 14] was 100 % of controls, the “RNA synthesis, preinc. in MEM+BHK” value [5, 14] was 100 % of controls and the Solubility in water [6] was “Very low”. The “Frequency of sarcomas at the site of injection” value (rats) was 65-90%.

In the case of Chromium sulphate [Chromium alum], the DNA synthesis ([1]; 0.5 mg/ml) is reported as 66 % of controls, the Protein synthesis ([1]; 0.5 mg/ml) is reported as 96 % of controls and the RNA synthesis ([1]; 0.5 mg/ml) is reported as 89 % of controls. For the same compound, the Cell growth ([2]; 0.5 mg/ml) was 88 % of controls, the “Mitotic block (% increase of abnormal metaphases 2-4 h after treatment)” value [3] was “+ (+ (<50%))” and the “Mitotic inhibition, early (% reduction of normal prophases at the end of treatment)” value [3] was “_”. The “Mitotic inhibition, late (% reduction of normal prophases 24 h after treatment)” value [3] was “+ (+ (< 30%))”, the Cell growth ([4]; 5 µg/ml) was 100 % control and the Cell growth ([4]; 25 µg/ml) was 100 % control. For the same compound, the Cell growth ([4]; 150 µg/ml) was 100 % control, the “DNA synthesis, preinc. in MEM” value [5, 8] was 92 % of controls and the “DNA synthesis, preinc. in MEM+BHK” value [5, 8] was 100 % of controls. The “Protein synthesis, preinc. in MEM” value [5, 8] was 100 % of controls, the “Protein synthesis, preinc. in MEM+BHK” value [5, 8] was 100 % of controls and the “RNA synthesis, preinc. in MEM” value [5, 8] was 100 % of controls. For the same compound, the “RNA synthesis, preinc. in MEM+BHK” value [5, 8] was 100 % of controls and the “Frequency of sarcomas at the site of injection” value (rats) was 20-25%.

For `[O]=[Cr](=[O])([O-])[O-].[Pb+2]` [lead chromate], the “Mutagenicity in the plate test” value (Salmonella) is given as “positive”, the “Mutagenicity for bacteria and mammalian cells in culture” value ([7]; fine suspension in water, ref Newbold et al.) is given as “inactive as a mutagen” and the “Point mutations in bacteria” value ([7]; solubilized in acids and alkalis, ref Nestmann et al.) is given as “induce point mutations”.

For `[Cl][Cr]([Cl])[Cl]` [Chromium chloride], the DNA synthesis ([1]; 0.5 mg/ml) was 100 % of controls, the Protein synthesis ([1]; 0.5 mg/ml) was 100 % of controls and the RNA synthesis ([1]; 0.5 mg/ml) was 100 % of controls. The Cell growth ([2]; 0.5 mg/ml) was 100 % of controls, the “Mitotic block (% increase of abnormal metaphases 2-4 h after treatment)” value [3] was “+ (+ (<50%))” and the “Mitotic inhibition, early (% reduction of normal prophases at the end of treatment)” value [3] was “++ (+ + (30-70%))”. For the same compound, the “Mitotic inhibition, late (% reduction of normal prophases 24 h after treatment)” value [3] was “+ (+ (< 30%))”, the Cell growth ([4]; 50 µg/ml) was 95 % control and the “DNA synthesis, preinc. in MEM” value [5, 8] was 100 % of controls. The “DNA synthesis, preinc. in MEM+BHK” value [5, 8] was 100 % of controls, the “Protein synthesis, preinc. in MEM” value [5, 8] was 100 % of controls and the “Protein synthesis, preinc. in MEM+BHK” value [5, 8] was 100 % of controls. For the same compound, the “RNA synthesis, preinc. in MEM” value [5, 8] was 100 % of controls, the “RNA synthesis, preinc. in MEM+BHK” value [5, 8] was 100 % of controls and the Solubility in water [6] was “High”.
